Experimental findings from PMC6749524, “Identification of New Antifungal Agents Targeting Chitin Synthesis by a Chemical-Genetic Method” (Molecules, 2019) are described below.

One experiment has as its system C. albicans. Description: MIC of CFW in the presence of compounds, checkerboard assay. The class given is cell-based, Candida albicans. The procedure:
(§1) Fresh cell cultures of WT S. cerevisiae and C. albicans ATCC10231 (OD600 = 0.8) were diluted to 10^4 CFU/mL in YPD medium. The in vitro synergistic and antagonistic effects of compounds were determined using checkerboard assay. MIC endpoints were defined as the lowest concentration of drugs, causing 80% decrease in viability compared to the drug-free control (MIC80). The calculation and interpretation of the fractional inhibitory concentration index (FICI) were carried out by referring to the document standards. FICI = (MIC of drug A in combination) / (MIC of drug A alone) + (MIC of drug B in combination) / (MIC of drug B alone). FIC ≤0.5 was considered as a synergistic effect, and >2 was considered as antagonism.

The next experiment relates to budding yeast. Described as above. In kind it is cell-based, S. cerevisiae. The note with it: budding yeast, CFW alone. The procedure:
as §1

A further experiment relates to C. albicans ATCC10231. Description: Checkerboard assay, synergy with caspofungin. The note with it: Candida albicans. The class given is cell-based. As for the experimental part:
as §1

A further experiment has as its system WT S. cerevisiae. The experiment can be described thus: Checkerboard assay, synergy with caspofungin. In kind it is cell-based. As to conditions: for MIC: Saccharomyces cerevisiae, read-out: MIC Alone. As for the experimental part: as §1
For experiment [1], the system named is chs3∆ (chs3::KanMX in BY4741). Description: MIC in compound library screening assay, chs3∆ yeast. In kind it is cell-based, S. cerevisiae. The note with it: for MIC: Saccharomyces cerevisiae, 24 h. As for the experimental part: (§2) The compound library is a combination of synthetic compounds from Enamine (Kyiv, Ukraine) and Life Chemicals Inc. (Burlington, ON, Canada) and natural products from the Institute of Medicinal Biotechnology. We used WT, chs3∆, and fks1∆ yeast strains to screen new antifungal agents. The screening assays were performed in 96-well plates in a final volume of 200 μL. Fresh yeast cells (OD600 = 0.8) were diluted to 10^5 CFU/mL in YPD medium. We added 198 μL of diluted culture and 2 μL of compounds into each well, and the final concentration of compounds was 100 μg/mL with 1% DMSO. The yeast cells were incubated at 30 °C for 24 hours to assess the growth. For the compounds that inhibited the growth of all three yeast strains, they were serially diluted to determine the minimal inhibit concentration (MIC) with the same method. MIC endpoints were defined as the lowest concentration of drugs that cause a 90% decrease in growth compared to the drug-free control (MIC90).

Experiment [2] concerns WT S. cerevisiae strain BY4741. Description: MIC in compound library screening assay, WT yeast. The class given is cell-based. As to conditions: for MIC: Saccharomyces cerevisiae. The procedure:
as §2

For experiment [3], the system named is fks1∆ (fks1::KanMX in BY4741). The experiment can be described thus: MIC in compound library screening assay, fks1∆ yeast. The class given is cell-based, S. cerevisiae. The note with it: for MIC: Saccharomyces cerevisiae, 24 h, read-out: MIC, fks1∆. As for the experimental part:
as §2

Read-outs that look alike come from different tables or passages of the source.

As usually defined, the MIC is the lowest concentration that inhibits growth of the organism.

On to `O=S(=O)([O-])c1cc(Nc2nc(Nc3ccccc3)nc(N(CCO)CCO)n2)ccc1/C=C/c1ccc(Nc2nc(Nc3ccccc3)nc(N(CCO)CCO)n2)cc1S(=O)(=O)[O-].[Na+].[Na+]` [CFW, Calcofluor White M2R, reference compound], for which the “MIC of CFW” value in the experiment on C. albicans (C. albicans, absence of chitin synthesis inhibitor) was found to be 12.5 µg/mL; in the experiment with budding yeast it was 6.25 µg/mL.

Consider `CC[C@H](C)C[C@H](C)CCCCCCCCC(=O)N[C@H]1C[C@@H](O)[C@@H](NCCN)NC(=O)[C@@H]2[C@@H](O)CCN2C(=O)[C@H]([C@H](O)CCN)NC(=O)[C@H]([C@H](O)[C@@H](O)c2ccc(O)cc2)NC(=O)[C@@H]2C[C@@H](O)CN2C(=O)[C@H]([C@@H](C)O)NC1=O` [Caspofungin, caspofungin], for which the MIC in the experiment with C. albicans ATCC10231 (ATCC10231, compound alone, MIC80, read-out: MIC Alone) was determined as 0.025 µg/mL; in the experiment with WT S. cerevisiae (S. cerevisiae, compound alone, MIC80) it was 0.03 µg/mL; in experiment [1] (read-out: MIC, chs3∆) it was 0.00375 µg/mL; in experiment [2] (WT BY4741, YPD, 30 °C, 24 hours, MIC90, read-out: MIC, WT), 0.03 µg/mL; in experiment [3], 0.015 µg/mL.

In the case of `C[C@@H]([C@H](N)C(=O)N[C@H](C(=O)O)[C@H]1O[C@@H](n2ccc(=O)[nH]c2=O)[C@H](O)[C@@H]1O)[C@H](O)c1ccc(O)cn1` [Nikkomycin, nikkomycin Z, reference compound], the MIC with C. albicans ATCC10231 (ATCC10231, read-out: MIC Alone) is 12.5 µg/mL; in the experiment on WT S. cerevisiae, above 100 µg/mL; in the experiment with C. albicans (Candida albicans, read-out: MIC of CFW in the presence of nikkomycin Z), 100 µg/mL; in experiment [1] (read-out: MIC, chs3∆, chs3∆ mutant, YPD, 30 °C, 24 hours, MIC90) it was at least 200 µg/mL; in experiment [2] (24 h, read-out: MIC, WT, WT BY4741, YPD, 30 °C, 24 hours, MIC90) it was at least 200 µg/mL; in experiment [3], 25 µg/mL. In addition, the “MIC of Caspofungin Combination” value with C. albicans ATCC10231 (MIC of caspofungin in combination with the named compound, MIC80) came to 0.00625 µg/mL; in the experiment on WT S. cerevisiae (S. cerevisiae, MIC of caspofungin in combination with the named compound, MIC80), 0.0075 µg/mL. For the same molecule, the “MIC Combination” value was 3.125 µg/mL in the experiment on C. albicans ATCC10231 (MIC of the compound in combination with caspofungin, MIC80) and 12.5 µg/mL with WT S. cerevisiae (S. cerevisiae, MIC of the compound in combination with caspofungin, MIC80). The FICI with WT S. cerevisiae (S. cerevisiae, fractional inhibitory concentration index with caspofungin, ≤0.5 synergistic) is below 0.5. In addition, in experiment [1] (chs3∆ mutant, YPD, 30 °C, 24 hours, MIC90), the “MIC, chs3∆” value is above 200 µg/mL. The “MIC, WT” value in experiment [2] (WT BY4741, YPD, 30 °C, 24 hours, MIC90) was above 200 µg/mL. The “MIC, fks1∆” value in experiment [3] (fks1∆ mutant, YPD, 30 °C, 24 hours, MIC90) worked out at 25 µg/mL.
